Laboratory results from article PMC11033320, “Activation of p53 signaling and regression of breast and prostate carcinoma cells by spirooxindole-benzimidazole small molecules” (Frontiers in Pharmacology, 2024).

Tests used:
OVCAR-8 = experiment: NCI anticancer screening, Ovarian Cancer OVCAR-8; type: cell-based; conditions: Homo sapiens; OVCAR-8, 10 μM; read-out: % Growth Inhibition (GI %)
Description: (§1) The compound has been processed according to standard method NCI-60 Human Tumor Cell Lines Screen for organic compound at development therapeutic program (DTP). Requests for access to this national resource can be submitted online at: […]

MDA-MB 231 cells = conditions: for inhibition: 5 µM
Method: Anticancer effect of the above-mentioned compounds was assayed using three human cancer cell lines. Triple negative breast cancer cell line (MDA-MB 231) and prostate cancer cell line (PC3) were cultured in DMEM (Lonza, USA) supplemented with 10% FBS. All cancer cells (4x10^3 cells/well) were seeded in sterile 96-well plates. After 24h, serial concentrations of the tested compounds were incubated with three cancer cell lines for 72 h at 37 °C in 5% CO2 incubator. […] The half maximal inhibitory concentration (IC50) values were calculated using the Graphpad Instat software.

OVCAR-5 = experiment: NCI anticancer screening, Ovarian Cancer OVCAR-5; type: cell-based; conditions: Homo sapiens; OVCAR-5, 10 μM; read-out: % Growth Inhibition (GI %)
Description: as §1

SK-MEL-2 = experiment: NCI anticancer screening, Melanoma SK-MEL-2; type: cell-based; conditions: Homo sapiens; SK-MEL-2, 10 μM; read-out: % Growth Inhibition (GI %)
Description: as §1

T-47D = experiment: NCI anticancer screening, Breast Cancer T-47D; type: cell-based; conditions: Homo sapiens, T47D, read-out: % Growth Inhibition (GI %)
Description: as §1

COLO 205 = experiment: NCI anticancer screening, Colon Cancer COLO 205; type: cell-based; conditions: Homo sapiens; COLO 205, 10 μM; read-out: % Growth Inhibition (GI %)
Description: as §1

DU-145 = experiment: NCI anticancer screening, DU-145; type: cell-based; conditions: Homo sapiens; DU-145, 10 μM; read-out: % Growth Inhibition (GI %)
Description: as §1

HS 578T = experiment: NCI anticancer screening, Breast Cancer HS 578T; type: cell-based; conditions: Homo sapiens, read-out: % Growth Inhibition (GI %)
Description: as §1

HCT-116 = experiment: NCI anticancer screening, Colon Cancer HCT-116; type: cell-based; conditions: Homo sapiens; HCT-116, 10 μM; read-out: % Growth Inhibition (GI %)
Description: as §1

HOP-92 = experiment: NCI anticancer screening, Non-Small Cell Lung Cancer HOP-92; type: cell-based; conditions: Homo sapiens; HOP-92, 10 μM; read-out: % Growth Inhibition (GI %)
Description: as §1

786-0 = experiment: NCI anticancer screening, Renal Cancer 786-0; type: cell-based; conditions: Homo sapiens; 786-0, 10 μM; read-out: % Growth Inhibition (GI %)
Description: as §1

HT29 = experiment: NCI anticancer screening, Colon Cancer HT29; type: cell-based; conditions: Homo sapiens, HT-29; HT29, 10 μM; read-out: % Growth Inhibition (GI %)
Description: as §1

NCI-H23 = experiment: NCI anticancer screening, Non-Small Cell Lung Cancer NCI-H23; type: cell-based; conditions: Homo sapiens; NCI-H23, 10 μM; read-out: % Growth Inhibition (GI %)
Description: as §1

SF-295 = experiment: NCI anticancer screening, CNS Cancer SF-295; type: cell-based; conditions: Homo sapiens; SF-295, 10 μM; read-out: % Growth Inhibition (GI %)
Description: as §1

TK-10 = experiment: NCI anticancer screening, Renal Cancer TK-10; type: cell-based; conditions: Homo sapiens; TK-10, 10 μM; read-out: % Growth Inhibition (GI %)
Description: as §1

NCI-H322M = experiment: NCI anticancer screening, Non-Small Cell Lung Cancer NCI-H322M; type: cell-based; conditions: Homo sapiens, read-out: % Growth Inhibition (GI %)
Description: as §1

NCI-H226 = experiment: NCI anticancer screening, Non-Small Cell Lung Cancer NCI-H226; type: cell-based; conditions: Homo sapiens; NCI-H226, 10 μM; read-out: % Growth Inhibition (GI %)
Description: as §1

SNB-19 = experiment: NCI anticancer screening, CNS Cancer SNB-19; type: cell-based; conditions: Homo sapiens; SNB-19, 10 μM; read-out: % Growth Inhibition (GI %)
Description: as §1

SK-OV-3 = experiment: NCI anticancer screening, Ovarian Cancer SK-OV-3; type: cell-based; conditions: Homo sapiens; SK-OV-3, 10 μM; read-out: % Growth Inhibition (GI %)
Description: as §1

SK-MEL-28 = experiment: NCI anticancer screening, Melanoma SK-MEL-28; type: cell-based; conditions: Homo sapiens; SK-MEL-28, 10 μM; read-out: % Growth Inhibition (GI %)
Description: as §1

NCI/ADR-RES = experiment: NCI anticancer screening, Ovarian Cancer NCI/ADR-RES; type: cell-based; conditions: Homo sapiens, read-out: % Growth Inhibition (GI %)
Description: as §1

U251 = experiment: NCI anticancer screening, CNS Cancer U251; type: cell-based; conditions: Homo sapiens, U-251; U251, 10 μM; read-out: % Growth Inhibition (GI %)
Description: as §1

BT-549 = experiment: NCI anticancer screening, Breast Cancer BT-549; type: cell-based; conditions: Homo sapiens; BT-549, 10 μM; read-out: % Growth Inhibition (GI %)
Description: as §1

[1] = target: T1, Mdm2 (residues 1–118 T47W) (Homo sapiens, UniProt Q00987, T47W); experiment: MDM2 binding by microscale thermophoresis (MST)
T1 construct: Mdm2 (residues 1–118 T47W; 500 nM)
Method: MST is a complementary biophysical assay to assess the binding of a small molecule to its receptor. […] Experiments were performed in 50 mM phosphate buffer at pH 7.4 containing 150 mM NaCl, 5 mM DTT, and 5% DMSO. […] Kd values and uncertainties were calculated using the MO Affinity Analysis software.

SF-268 = experiment: NCI anticancer screening, CNS Cancer SF-268; type: cell-based; conditions: Homo sapiens; SF-268, 10 μM; read-out: % Growth Inhibition (GI %)
Description: as §1

UACC-62 = experiment: NCI anticancer screening, Melanoma UACC-62; type: cell-based; conditions: Homo sapiens; UACC-62, 10 μM; read-out: % Growth Inhibition (GI %)
Description: as §1

ACHN = experiment: NCI anticancer screening, Renal Cancer ACHN; type: cell-based; conditions: Homo sapiens, read-out: % Growth Inhibition (GI %)
Description: as §1

IGROV1 = experiment: NCI anticancer screening, Ovarian Cancer IGROV1; type: cell-based; conditions: Homo sapiens, IGROV-1; IGROV1, 10 μM; read-out: % Growth Inhibition (GI %)
Description: as §1

[2] = system: leukemia cells (CCRF-CEM; HL-60 (TB); K-562; MOLT-4; RPMI-8226, SR); experiment: NCI anticancer screening, leukemia subpanel; type: cell-based, human; conditions: smaller GI% than the other compounds
Description: as §1

A498 = experiment: NCI anticancer screening, Renal Cancer A498; type: cell-based; conditions: Homo sapiens; A498, 10 μM; read-out: % Growth Inhibition (GI %)
Description: as §1

T1 sequence (Q00987 1-118 T47W): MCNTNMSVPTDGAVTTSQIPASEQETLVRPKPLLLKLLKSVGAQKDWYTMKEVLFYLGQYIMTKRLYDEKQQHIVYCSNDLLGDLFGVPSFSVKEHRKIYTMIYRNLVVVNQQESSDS

Row | SMILES | inhibition at 10 µM (OVCAR-8) [%] | inhibition (MDA-MB 231 cells) [%] | inhibition at 10 µM (OVCAR-5) [%] | inhibition at 10 µM (SK-MEL-2) [%] | inhibition at 10 µM (T-47D) [%] | inhibition at 10 µM (DU-145) [%] | inhibition at 10 µM (HS 578T) [%] | inhibition at 10 µM (HCT-116) [%] | inhibition at 10 µM (HOP-92) [%] | inhibition at 10 µM (786-0) [%] | inhibition at 10 µM (HT29) [%] | inhibition at 10 µM (NCI-H23) [%] | inhibition at 10 µM (SF-295) [%] | inhibition at 10 µM (TK-10) [%] | inhibition at 10 µM (NCI-H322M) [%] | inhibition at 10 µM (SNB-19) [%] | inhibition at 10 µM (SK-MEL-28) [%] | inhibition at 10 µM (NCI/ADR-RES) [%] | inhibition at 10 µM (U251) [%] | inhibition at 10 µM (BT-549) [%] | also measured
1 | O=C(c1nc2ccccc2[nH]1)[C@H]1[C@H](c2ccccc2)C2CSCN2[C@]12C(=O)Nc1ccccc12 (mixture of isomers) [Compound 6a, (3S,6′R)-6'-(1H-benzo [d]imidazole-2-carbonyl)-7′-phenyl-3′,6′,7′,7a′-tetrahydro-1′H-spiro [indoline-3.5′-pyrrolo [1,2-c]thiazol]-2-one] | 96.1 | 55.5 ± 0.761 | 104 | 101 | 88 | 115 | 103 | 106 | 95.5 | 102 | 98.8 | 104 | 104 | 110 | 98.1 | 97 | 103 | 105 | 93.9 | 102 | IC50 (MDA-MB 231 cells): 2.97 ± 0.047 µM; inhibition at 10 µM (COLO 205): 99.9%; inhibition at 10 µM (NCI-H226): 95.3%; inhibition at 10 µM (SK-OV-3): 99.1%; Kd [1]: 87.7 µM; inhibition at 10 µM (SF-268): 98.1%; inhibition at 10 µM (UACC-62): 95.7%; inhibition at 10 µM (ACHN): 99.5%; inhibition at 10 µM (IGROV1): 91.4%
2 | Cc1ccc([C@@H]2C3CSCN3[C@]3(C(=O)Nc4ccccc43)[C@H]2C(=O)c2nc3ccccc3[nH]2)cc1 (mixture of isomers) [Compound 6d, (3S,6′R)-6'-(1H-Benzo [d]imidazole-2-carbonyl)-7'-(p-tolyl)-3′,6′,7′,7a′-tetrahydro-1′H-spiro [indoline-3.5′-pyrrolo [1,2-c]thiazol]-2-one] | 95.9 | 51.7 ± 1.3 | 95.2 | 93.6 | 68.8 | 106 | 78.6 | 74.5 | 87 | 86.1 | 69.2 | 91.2 | 59 | 94.5 | 83.1 | 80.3 | 98.8 | 86.2 | 73.3 | 96.2 | IC50 (MDA-MB 231 cells): 4.3 ± 0.137 µM; inhibition at 10 µM (COLO 205): 81.9%; inhibition at 10 µM (NCI-H226): 73.9%; inhibition at 10 µM (SK-OV-3): 94.2%; Kd [1]: 17.4 µM; inhibition at 10 µM (SF-268): 64%; inhibition at 10 µM (UACC-62): 78%; inhibition at 10 µM (ACHN): 88.9%; inhibition at 10 µM (IGROV1): 75%
3 | O=C(c1nc2ccccc2[nH]1)[C@H]1[C@H](c2ccc(Cl)cc2)C2CSCN2[C@]12C(=O)Nc1ccccc12 (stereo partly drawn) [Compound 6b, (3S,6′R)-6'-(1H-Benzo [d]imidazole-2-carbonyl)-7'-(4-chlorophenyl)-3′,6′,7′,7a′-tetrahydro-1′H-spiro [indoline-3.5′-pyrrolo [1,2-c]thiazol]-2-one] | 89.5 | 52.7 ± 2.94 | 92.5 | 110 | 59.9 | 97.4 | 72.1 | 60.5 | 100 | 97.6 | 80.9 | 81.4 | 77.5 | 121 | 93.5 | 77.7 | 92.2 | 84.7 | 81.2 | 97 | IC50 (MDA-MB 231 cells): 4.76 ± 0.265 µM; GI% for MOLT-4, RPMI-8226, and SR cancer cells [2]: 75%; inhibition at 10 µM (NCI-H226): 74%; inhibition at 10 µM (SF-268): 77.5%; inhibition at 10 µM (UACC-62): 73.9%; inhibition at 10 µM (ACHN): 78.2%; inhibition at 10 µM (IGROV1): 68.9%
4 | O=C(c1nc2ccccc2[nH]1)[C@H]1[C@H](c2ccc(F)cc2)C2CSCN2[C@]12C(=O)Nc1ccccc12 (stereo partly drawn) [Compound 6f, (3S,6′R)-6'-(1H-Benzo [d]imidazole-2-carbonyl)-7'-(4-fluorophenyl)-3′,6′,7′,7a′-tetrahydro-1′H-spiro [indoline-3.5′-pyrrolo [1,2-c]thiazol]-2-one] | 94.7 | 44.9 ± 3.59 | 100 | 102 | 84.1 | 111 | 98 | 92.9 | 112 | 99 | 85.7 | 98 | 77.9 | 101 | 90.4 | 95.9 | 102 | 99.4 | 93.5 | 97.4 | IC50 (MDA-MB 231 cells): 4.41 ± 0.448 µM; inhibition at 10 µM (COLO 205): 109%; inhibition at 10 µM (A498): 57.2%; inhibition at 10 µM (SK-OV-3): 102%; inhibition at 10 µM (SF-268): 96.3%; inhibition at 10 µM (UACC-62): 78.1%; inhibition at 10 µM (ACHN): 94.2%; inhibition at 10 µM (IGROV1): 93.2%
5 | COc1cc([C@@H]2C3CSCN3[C@]3(C(=O)Nc4ccccc43)[C@H]2C(=O)c2nc3ccccc3[nH]2)cc(OC)c1OC (stereo partly drawn) [Compound 6i, (3S,6′R)-6'-(1H-Benzo [d]imidazole-2-carbonyl)-7'-(3,4,5-trimethoxyphenyl)-3′,6′,7′,7a′-tetrahydro-1′H-spiro [indoline-3.5′-pyrrolo [1,2-c]thiazol]-2-one] | 99.3 | 46 ± 1.41 | 94.3 | 115 | 102 | 111 | 102 | 102 | 106 | 99.4 | 107 | 104 | 95.2 | 104 | 93.1 | 100 | 107 | 104 | 103 | 93.7 | inhibition at 10 µM (COLO 205): 114%; inhibition at 10 µM (A498): 81.7%; inhibition at 10 µM (SK-OV-3): 102%; inhibition at 10 µM (SF-268): 99.2%; inhibition at 10 µM (UACC-62): 87.4%; inhibition at 10 µM (ACHN): 107%; inhibition at 10 µM (IGROV1): 95.8%
